Molecules are shown by their SMILES.

We go through 16 molecules from US11076595B2, “1-(n,n-disubstituted carbamoyl) 4-(substituted sulfonyl)triazolin-5-one derivative, 4-(n,n-disubstituted carbamoyl) 1-(substituted sulfonyl)triazolin-5-one derivative, and herbicide containing said derivative as active ingredient” (HOKKO CHEMICAL INDUSTRY CO., LTD., priority 2017, dated 2021).

What all share (assay type): in vivo
The test system of assay [1] is Scirpus juncoides. Description: Test Example 11: herbicidal effect test by soil treatment in paddy field. Conditions: 120 g/10a active ingredient, 14 days after treatment. The procedure, abridged:
(§1)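 Pre-emergence flooded-paddy test: the water-diluted emulsifiable concentrate, 120 g active ingredient per 10 are, was dripped into pots immediately after seeding, with water held at about 3 cm. Two replicate pots per rate; 14 days after treatment, plant dry weight versus untreated pots gave the weed suppression rate.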

In assay [2] the test system is Lindernia pyxidaria. The description is as above. Conditions: 120 g/10a active ingredient, 14 days after treatment. The gist of the method: as §1
Assay [3] deals with Echinochloa crus-galli. The description is as above. Conditions: 120 g/10a active ingredient, 14 days after treatment. The procedure, abridged: as §1
In assay [4] the test system is Monochoria vaginalis. Described as above. Conditions: 120 g/10a active ingredient, 14 days after treatment. The procedure, abridged: as §1
Assay [5] relates to Scirpus juncoides. As to the kind of experiment: Test Example 12: herbicidal effect test by treatment during growing period in paddy field. Conditions: 120 g/10a; treatment seven days after sowing in flooded paddy pot; assessed 14 days after treatment. The procedure, abridged: (§2)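 Water-diluted emulsifiable concentrate added dropwise to flooded pots (~3 cm water) 7 d after sowing; rate 120 g active ingredient per 10 are. Weeds grown from 30 seeds each in puddled paddy soil under greenhouse conditions. Dry-weight suppression rate relative to untreated plots determined 14 d after treatment, duplicates.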

Assay [6] has as its system Lindernia pyxidaria. The assay is described as above. Conditions: 120 g/10a; treatment seven days after sowing in flooded paddy pot; assessed 14 days after treatment. The procedure, abridged: as §2
For assay [7], the system named is Echinochloa crus-galli. The description is as above. Conditions: 120 g/10a; treatment seven days after sowing in flooded paddy pot; assessed 14 days after treatment. The gist of the method: as §2
Assay [8] has as its system Monochoria vaginalis. Described as above. Conditions: 120 g/10a; treatment seven days after sowing in flooded paddy pot; assessed 14 days after treatment. The procedure, abridged:
as §2

In the case of `Cc1cc(C)c(S(=O)(=O)n2ncn(C(=O)N(c3ccc(Cl)cn3)C(C)C)c2=O)c(C)c1` [Compound 11-889], the “Weed suppression rate (%) Scirpus juncoides” value with Scirpus juncoides [1] and in the assay with Scirpus juncoides [5] was 90% throughout. Further, the “Weed suppression rate (%) Lindemia pyxidaria” value with Lindernia pyxidaria [2] came out at 100%; in the assay with Lindernia pyxidaria [6], 70%. The “Weed suppression rate (%) Echinochloa crus-galli” value in the assay with Echinochloa crus-galli [3] and with Echinochloa crus-galli [7] was 100% throughout. Also, the “Weed suppression rate (%) Monochoria vaginalis” value in the assay with Monochoria vaginalis [4] and with Monochoria vaginalis [8] was 80% each time.

In the case of `CC(C)N(C(=O)n1cnn(S(=O)(=O)C(C)C)c1=O)c1ccc(Br)cc1Cl` [Compound 11-70], the “Weed suppression rate (%) Scirpus juncoides” value in the assay with Scirpus juncoides [1] and in the assay on Scirpus juncoides [5] was 100% each time. Besides, the “Weed suppression rate (%) Lindemia pyxidaria” value with Lindernia pyxidaria [2] was 100%; in the assay with Lindernia pyxidaria [6], 70%. In addition, the “Weed suppression rate (%) Echinochloa crus-galli” value in the assay with Echinochloa crus-galli [3] and in the assay with Echinochloa crus-galli [7] was 100% in each case. Besides, the “Weed suppression rate (%) Monochoria vaginalis” value with Monochoria vaginalis [4] and in the assay with Monochoria vaginalis [8] was 90% each time.

Consider `CC(C)N(C(=O)n1cnn(S(=O)(=O)c2c(F)c(F)c(F)c(F)c2F)c1=O)c1ccccc1F` [Compound 11-801], for which the “Weed suppression rate (%) Scirpus juncoides” value is reported as 90% with Scirpus juncoides [1] and 60% in the assay on Scirpus juncoides [5]. Besides, the “Weed suppression rate (%) Lindemia pyxidaria” value with Lindernia pyxidaria [2] stood at 90%; with Lindernia pyxidaria [6], 60%. The “Weed suppression rate (%) Echinochloa crus-galli” value in the assay with Echinochloa crus-galli [3] and in the assay with Echinochloa crus-galli [7] was 90% each time. For the same molecule, the “Weed suppression rate (%) Monochoria vaginalis” value with Monochoria vaginalis [4] is recorded as 90%; in the assay on Monochoria vaginalis [8] it was 80%.

As to `CC(C)N(C(=O)n1cnn(S(=O)(=O)c2ccc(C(C)(C)C)cc2)c1=O)c1c(F)c(F)cc(F)c1F` [Compound 11-687], the “Weed suppression rate (%) Scirpus juncoides” value in the assay with Scirpus juncoides [1] amounted to 90%; in the assay with Scirpus juncoides [5], 70%. Moreover, the “Weed suppression rate (%) Lindemia pyxidaria” value with Lindernia pyxidaria [2] was 100%; in the assay with Lindernia pyxidaria [6], 70%. In addition, the “Weed suppression rate (%) Echinochloa crus-galli” value with Echinochloa crus-galli [3] is on record as 80%; with Echinochloa crus-galli [7], 100%. In addition, the figures for the “Weed suppression rate (%) Monochoria vaginalis” value in the assay on Monochoria vaginalis [4] and in the assay on Monochoria vaginalis [8] were 100% and 80%, respectively.

For the molecule `CC(C)N(C(=O)n1cnn(S(=O)(=O)c2ccc(F)cc2)c1=O)c1ccc(Br)cc1Cl` [Compound 11-486], the “Weed suppression rate (%) Scirpus juncoides” value in the assay on Scirpus juncoides [1] is 80%; with Scirpus juncoides [5], 60%. Besides, the “Weed suppression rate (%) Lindemia pyxidaria” value is 90% in the assay with Lindernia pyxidaria [2] and 70% in the assay with Lindernia pyxidaria [6]. The “Weed suppression rate (%) Echinochloa crus-galli” value in the assay with Echinochloa crus-galli [3] was found to be 90%; in the assay with Echinochloa crus-galli [7], 60%. Besides, the “Weed suppression rate (%) Monochoria vaginalis” value in the assay with Monochoria vaginalis [4] is listed as 80%; in the assay with Monochoria vaginalis [8] it was 70%.

`CN(C(=O)n1cnn(S(=O)(=O)C2CC2)c1=O)c1ccc(F)cc1F` [Compound 11-140]: the “Weed suppression rate (%) Scirpus juncoides” value in the assay on Scirpus juncoides [1] is reported as 80%; in the assay on Scirpus juncoides [5] it was 100%. For the same molecule, the “Weed suppression rate (%) Lindemia pyxidaria” value in the assay with Lindernia pyxidaria [2] and in the assay with Lindernia pyxidaria [6] was 70% in each case. Also, the results for the “Weed suppression rate (%) Echinochloa crus-galli” value with Echinochloa crus-galli [3] and in the assay on Echinochloa crus-galli [7] were 90% and 100%, respectively. Besides, the “Weed suppression rate (%) Monochoria vaginalis” value in the assay with Monochoria vaginalis [4] and in the assay with Monochoria vaginalis [8] was 70% in each case.

Take `CC(C)N(C(=O)n1cnn(S(C)(=O)=O)c1=O)c1ccc(F)c(F)c1F` [Compound 11-15]: the “Weed suppression rate (%) Scirpus juncoides” value was found to be 60% in the assay with Scirpus juncoides [1] and 100% with Scirpus juncoides [5]. Also, the “Weed suppression rate (%) Lindemia pyxidaria” value came to 70% in the assay on Lindernia pyxidaria [2] and 60% in the assay with Lindernia pyxidaria [6]. Moreover, the “Weed suppression rate (%) Echinochloa crus-galli” value was 90% in the assay with Echinochloa crus-galli [3] and 70% in the assay on Echinochloa crus-galli [7]. In addition, the “Weed suppression rate (%) Monochoria vaginalis” value in the assay with Monochoria vaginalis [4] and in the assay with Monochoria vaginalis [8] was 60% each time.

For `CC(C)N(C(=O)n1cnn(S(=O)(=O)c2ccc(F)cc2)c1=O)c1ccc(F)c(F)c1F` [Compound 11-478], the “Weed suppression rate (%) Scirpus juncoides” value in the assay with Scirpus juncoides [1] and with Scirpus juncoides [5] was 100% each time. Besides, the “Weed suppression rate (%) Lindemia pyxidaria” value is recorded as 100% in the assay on Lindernia pyxidaria [2] and 70% in the assay on Lindernia pyxidaria [6]. Also, the “Weed suppression rate (%) Echinochloa crus-galli” value with Echinochloa crus-galli [3] and in the assay on Echinochloa crus-galli [7] was 100% each time. Further, the “Weed suppression rate (%) Monochoria vaginalis” value with Monochoria vaginalis [4] was 100%; in the assay on Monochoria vaginalis [8] it was 90%.

`Cc1ccc(N(C(=O)n2cnn(S(=O)(=O)c3ccc(C(C)(C)C)cc3)c2=O)C(C)C)c(F)c1` [Compound 11-696]: the “Weed suppression rate (%) Scirpus juncoides” value in the assay with Scirpus juncoides [1] and with Scirpus juncoides [5] was 90% in each case. The “Weed suppression rate (%) Lindemia pyxidaria” value in the assay with Lindernia pyxidaria [2] and with Lindernia pyxidaria [6] was 80% throughout. For the same molecule, the “Weed suppression rate (%) Echinochloa crus-galli” value in the assay with Echinochloa crus-galli [3] and with Echinochloa crus-galli [7] was 90% in each case. In addition, the “Weed suppression rate (%) Monochoria vaginalis” value in the assay with Monochoria vaginalis [4] and with Monochoria vaginalis [8] was 80% each time.

As to `CC(C)N(C(=O)n1cnn(S(=O)(=O)c2ccccc2F)c1=O)c1ccc(C(F)(F)F)cc1F` [Compound 11-419], the “Weed suppression rate (%) Scirpus juncoides” value in the assay with Scirpus juncoides [1] is 70%; in the assay on Scirpus juncoides [5], 60%. For the same molecule, the “Weed suppression rate (%) Lindemia pyxidaria” value in the assay on Lindernia pyxidaria [2] is recorded as 100%; in the assay on Lindernia pyxidaria [6], 60%. The “Weed suppression rate (%) Echinochloa crus-galli” value came to 100% in the assay with Echinochloa crus-galli [3] and 90% in the assay on Echinochloa crus-galli [7]. Moreover, the results for the “Weed suppression rate (%) Monochoria vaginalis” value with Monochoria vaginalis [4] and in the assay on Monochoria vaginalis [8] were 60% and 80%, respectively.

In the case of `CC(C)N(C(=O)n1cnn(S(=O)(=O)c2ccccc2F)c1=O)c1c(F)cccc1F` [Compound 11-404], the “Weed suppression rate (%) Scirpus juncoides” value is 30% in the assay on Scirpus juncoides [1] and 70% with Scirpus juncoides [5]. For the same molecule, the “Weed suppression rate (%) Lindemia pyxidaria” value turned out to be 30% in the assay with Lindernia pyxidaria [2] and 70% in the assay with Lindernia pyxidaria [6]. In addition, the “Weed suppression rate (%) Echinochloa crus-galli” value in the assay with Echinochloa crus-galli [3] and in the assay with Echinochloa crus-galli [7] was 100% in each case. In addition, the “Weed suppression rate (%) Monochoria vaginalis” value with Monochoria vaginalis [4] was determined as 60%; with Monochoria vaginalis [8], 70%.

As for `CC(C)N(C(=O)n1cnn(S(=O)(=O)c2cccc(Cl)c2)c1=O)c1c(F)cc(F)cc1F` [Compound 11-554], the “Weed suppression rate (%) Scirpus juncoides” value in the assay on Scirpus juncoides [1] is on record as 70%; in the assay on Scirpus juncoides [5] it was 90%. Besides, the “Weed suppression rate (%) Lindemia pyxidaria” value in the assay on Lindernia pyxidaria [2] was 90%; with Lindernia pyxidaria [6] it was 80%. Besides, the results for the “Weed suppression rate (%) Echinochloa crus-galli” value with Echinochloa crus-galli [3] and in the assay on Echinochloa crus-galli [7] were 100% and 80%, respectively. For the same molecule, the “Weed suppression rate (%) Monochoria vaginalis” value is listed as 70% in the assay with Monochoria vaginalis [4] and 80% in the assay on Monochoria vaginalis [8].

As to `CC(C)N(C(=O)n1cnn(S(=O)(=O)C2CCCCC2)c1=O)c1ccc(C#N)cc1Cl` [Compound 11-316], the “Weed suppression rate (%) Scirpus juncoides” value in the assay on Scirpus juncoides [1] and with Scirpus juncoides [5] was 90% in each case. Besides, the “Weed suppression rate (%) Lindemia pyxidaria” value in the assay with Lindernia pyxidaria [2] and with Lindernia pyxidaria [6] was 80% each time. Also, the “Weed suppression rate (%) Echinochloa crus-galli” value in the assay on Echinochloa crus-galli [3] and in the assay with Echinochloa crus-galli [7] was 90% each time. Moreover, the “Weed suppression rate (%) Monochoria vaginalis” value in the assay on Monochoria vaginalis [4] and in the assay on Monochoria vaginalis [8] was 80% in each case.

With `Cc1ccc(S(=O)(=O)n2ncn(C(=O)N(C)c3ccc(F)cc3F)c2=O)cc1` [Compound 11-1131], the figures for the “Weed suppression rate (%) Scirpus juncoides” value with Scirpus juncoides [1] and in the assay on Scirpus juncoides [5] were 100% and 80%, respectively. The “Weed suppression rate (%) Lindemia pyxidaria” value in the assay on Lindernia pyxidaria [2] is on record as 100%; in the assay on Lindernia pyxidaria [6] it was 70%. Further, the “Weed suppression rate (%) Echinochloa crus-galli” value with Echinochloa crus-galli [3] and in the assay with Echinochloa crus-galli [7] was 100% in each case. For the same molecule, the “Weed suppression rate (%) Monochoria vaginalis” value in the assay on Monochoria vaginalis [4] was found to be 70%; in the assay on Monochoria vaginalis [8] it was 90%.

Turning to `CC(C)N(C(=O)n1cnn(S(=O)(=O)c2cccc(F)c2)c1=O)c1ccccc1F` [Compound 11-428], the “Weed suppression rate (%) Scirpus juncoides” value in the assay on Scirpus juncoides [1] and with Scirpus juncoides [5] was 90% each time. Besides, the “Weed suppression rate (%) Lindemia pyxidaria” value with Lindernia pyxidaria [2] and with Lindernia pyxidaria [6] was 90% each time. The “Weed suppression rate (%) Echinochloa crus-galli” value in the assay on Echinochloa crus-galli [3] and with Echinochloa crus-galli [7] was 90% in each case. The “Weed suppression rate (%) Monochoria vaginalis” value in the assay with Monochoria vaginalis [4] and with Monochoria vaginalis [8] was 90% in each case.

As to `CC(C)N(C(=O)n1cnn(S(=O)(=O)c2ccc(F)cc2)c1=O)c1ccccc1F` [Compound 11-465], the “Weed suppression rate (%) Scirpus juncoides” value with Scirpus juncoides [1] and in the assay on Scirpus juncoides [5] was 90% in each case. Besides, the “Weed suppression rate (%) Lindemia pyxidaria” value in the assay with Lindernia pyxidaria [2] and in the assay on Lindernia pyxidaria [6] was 80% in each case. Besides, the “Weed suppression rate (%) Echinochloa crus-galli” value in the assay with Echinochloa crus-galli [3] and in the assay on Echinochloa crus-galli [7] was 90% each time. For the same molecule, the “Weed suppression rate (%) Monochoria vaginalis” value with Monochoria vaginalis [4] and with Monochoria vaginalis [8] was 80% in each case.
